This experiment concerns the target T1, G9a (Homo sapiens, UniProt Q96KQ7).
T1 sequence (Q96KQ7 1-1210): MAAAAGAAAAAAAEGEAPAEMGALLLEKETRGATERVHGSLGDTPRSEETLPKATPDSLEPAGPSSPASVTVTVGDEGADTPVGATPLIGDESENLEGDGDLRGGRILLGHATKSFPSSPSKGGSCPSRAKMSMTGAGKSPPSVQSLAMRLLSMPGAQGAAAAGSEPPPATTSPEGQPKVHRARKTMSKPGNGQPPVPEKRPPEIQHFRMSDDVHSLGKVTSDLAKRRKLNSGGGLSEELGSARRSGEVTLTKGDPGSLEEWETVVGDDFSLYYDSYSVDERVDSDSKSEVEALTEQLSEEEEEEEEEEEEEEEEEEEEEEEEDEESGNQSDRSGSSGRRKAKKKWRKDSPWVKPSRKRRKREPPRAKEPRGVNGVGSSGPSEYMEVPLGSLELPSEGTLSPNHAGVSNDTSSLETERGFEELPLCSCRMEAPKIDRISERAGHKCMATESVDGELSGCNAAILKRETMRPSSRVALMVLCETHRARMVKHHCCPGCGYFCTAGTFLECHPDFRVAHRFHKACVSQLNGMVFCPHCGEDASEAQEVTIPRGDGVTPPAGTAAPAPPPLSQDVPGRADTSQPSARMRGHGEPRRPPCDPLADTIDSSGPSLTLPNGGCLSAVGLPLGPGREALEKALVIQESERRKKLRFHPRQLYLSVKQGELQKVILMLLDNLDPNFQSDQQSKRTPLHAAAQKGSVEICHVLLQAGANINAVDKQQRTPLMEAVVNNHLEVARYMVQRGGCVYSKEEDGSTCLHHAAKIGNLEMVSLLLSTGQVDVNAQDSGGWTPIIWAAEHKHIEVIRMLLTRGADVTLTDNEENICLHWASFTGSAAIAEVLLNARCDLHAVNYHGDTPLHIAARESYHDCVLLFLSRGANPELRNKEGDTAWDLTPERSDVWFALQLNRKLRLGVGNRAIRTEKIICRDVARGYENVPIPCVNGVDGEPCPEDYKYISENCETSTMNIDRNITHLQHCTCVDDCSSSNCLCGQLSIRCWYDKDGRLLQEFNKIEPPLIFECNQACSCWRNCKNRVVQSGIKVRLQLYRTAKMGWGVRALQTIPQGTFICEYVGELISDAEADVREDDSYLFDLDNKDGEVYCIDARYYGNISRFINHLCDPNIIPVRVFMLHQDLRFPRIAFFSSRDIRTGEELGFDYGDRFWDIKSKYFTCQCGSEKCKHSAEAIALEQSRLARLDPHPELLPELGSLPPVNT
The experiment in a line: G9a AlphaLISA enzymatic activity assay. The class given is biochemical. The settings on record: 0.15 nM G9a, 15 uM S-adenosyl-methionine, 100 nM biotinylated histone 3 peptide (1-21), 1 hour at room temperature; read-out: G9a in (uM) (IC50, concentration that produced 50% inhibition). The method in brief:
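Human G9a (0.15 nM) methylated 100 nM biotinylated histone H3(1-21) peptide with 15 uM SAM in Tris-HCl pH9 buffer with NaCl, Tween-20 and DTT, 1 h at room temperature. H3K9me2 was detected by AlphaLISA acceptor/streptavidin donor beads (20 ug/mL each); IC50 from percent inhibition across compound dilutions.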
For orientation: In Alpha technology, singlet oxygen from a donor bead excites a nearby acceptor bead.

Structures can show the parent of a compound that is named as a salt.

`COc1cc2c3c(c(NC(C)C)nc2cc1OCCCN1CCCC1)CN(C)CC3` [Example 71, 9-methoxy-3-methyl-N-(propan-2-yl)-8-[3-(pyrrolidin-1-yl)propoxy]-1H,2H,3H,4H-benzo[c]2,7-naphthyridin-5-amine formate]: the IC50 is 1.1 µM. As for `COc1cc2c3c(c(N(C)C4CCCC4)nc2cc1OCCCN1CCCC1)CCC3` [Example 73, N-cyclopentyl-8-methoxy-N-methyl-7-[3-(pyrrolidin-1-yl)propoxy]-1H,2H,3H-cyclopenta[c]quinolin-4-amine trifluoroacetate], the IC50 came to 1.9 µM. Under `CCNc1nc2cc(OCCCN3CCCC3)c(OC)cc2c2c1CC(C)(C)C2` [Example 74, N-ethyl-8-methoxy-2,2-dimethyl-7-[3-(pyrrolidin-1-yl)propoxy]-1H,2H,3H-cyclopenta[c]quinolin-4-amine formate] stands 0.015 µM; under `COc1cc2c3c(cnc2cc1OCCCN1CCCC1)CCC(C)(C)N3` [Example 75, 1-[3-({9-methoxy-2,2-dimethyl-1H,2H,3H,4H-benzo[h]1,6-naphthyridin-8-yl}oxy)propyl]pyrrolidine formate], 0.014 µM; under `COc1cc2c3c(c(C4CC4)nc2cc1OCCCN1CCCC1)CCC(C)(C)N3` [Example 76, 1-[3-({5-cyclopropyl-9-methoxy-2,2-dimethyl-1H,2H,3H,4H-benzo[h]1,6-naphthyridin-8-yl}oxy)propyl]pyrrolidine formate], 0.013 µM. In the case of `COc1cc2c3c(c(C(C)C)nc2cc1OCCCN1CCCC1)CCC(C)(C)N3` [Example 77, 1-(3-{[9-methoxy-2,2-dimethyl-5-(propan-2-yl)-1H,2H,3H,4H-benzo[h]1,6-naphthyridin-8-yl]oxy}propyl)pyrrolidine formate] it was 0.007 µM; in that of `COc1cc2c3c(c(C)nc2cc1OCCCN1CCCC1)CCC(C)(C)N3` [Example 78, 1-[3-({9-methoxy-2,2,5-trimethyl-1H,2H,3H,4H-benzo[h]1,6-naphthyridin-8-yl}oxy)propyl]pyrrolidine], 0.003 µM; in that of `COc1cc2c3c(c(C4CCCC4)nc2cc1OCCCN1CCCC1)CCCCN3` [Example 79, 1-[3-({6-cyclopentyl-10-methoxy-1H,2H,3H,4H,5H-azepino[3,2-c]quinolin-9-yl}oxy)propyl]pyrrolidine triflate], 0.003 µM. Under `COc1cc2c3c(c(C4CC4)nc2cc1OCCCN1CCCC1)CCCCN3` [Example 80, 1-[3-({6-cyclopropyl-10-methoxy-1H,2H,3H,4H,5H-azepino[3,2-c]quinolin-9-yl}oxy)propyl]pyrrolidine trifluoroacetate] stands 0.009 µM; under `COc1cc2c3c(c(C(C)C)nc2cc1OCCCN1CCCC1)CCCCN3` [Example 81, 1-(3-{[10-methoxy-6-(propan-2-yl)-1H,2H,3H,4H,5H-azepino[3,2-c]quinolin-9-yl]oxy}propyl)pyrrolidine trifluoroacetate], 0.009 µM. Consider `COc1cc2c3c(c(C)nc2cc1OCCCN1CCCC1)CCCCN3` [Example 82, 1-[3-({10-methoxy-6-methyl-1H,2H,3H,4H,5H-azepino[3,2-c]quinolin-9-yl}oxy)propyl]pyrrolidine trifluoroacetate], for which the IC50 worked out at 0.006 µM. Under `COc1cc2c3c(c(C4=CCCC4)nc2cc1OCCCN1CCCC1)CC(C)(C)N3` [Example 83, 1-(3-{[4-(cyclopent-1-en-1-yl)-8-methoxy-2,2-dimethyl-1H,2H,3H-pyrrolo[3,2-c]quinolin-7-yl]oxy}propyl)pyrrolidine] stands 0.009 µM; under `CC(C)Nc1nc2cc(OCCCN3CCCC3)c(O)cc2c2c1CCC2` [Example 84, 4-[(propan-2-yl)amino]-7-[3-(pyrrolidin-1-yl)propoxy]-1H,2H,3H-cyclopenta[c]quinolin-8-ol trifluoroacetate], 1.6 µM; under `COc1cc2c3c(c(NC(C)C)nc2cc1OCCCN1CCCCC1)CCC3` [Example 85, 8-methoxy-7-[3-(piperidin-1-yl)propoxy]-N-(propan-2-yl)-1H,2H,3H-cyclopenta[c]quinolin-4-amine formate], 0.66 µM.

`COc1cc2c3c(c(NC(C)C)nc2cc1OCCCN1CCC(C)(C)C1)CCC3` [Example 86, 7-[3-(3,3-dimethylpyrrolidin-1-yl)propoxy]-8-methoxy-N-(propan-2-yl)-1H,2H,3H-cyclopenta[c]quinolin-4-amine formate]: the IC50 is greater than 10 µM. In the case of `COc1cc2c3c(c(NCCC(C)C)nc2cc1OCCCN1CCCC1)CC(C)(C)C3` [Example 87, 8-methoxy-2,2-dimethyl-N-(3-methylbutyl)-7-[3-(pyrrolidin-1-yl)propoxy]-1H,2H,3H-cyclopenta[c]quinolin-4-amine formate] it was 0.15 µM; in that of `COc1cc2c3c(c(N[C@@H](C)C4CC4)nc2cc1OCCCN1CCCC1)CCC3` [Example 88, N-[(1S)-1-cyclopropylethyl]-8-methoxy-7-[3-(pyrrolidin-1-yl)propoxy]-1H,2H,3H-cyclopenta[c]quinolin-4-amine formate], 0.003 µM; in that of `COc1cc2c3c(c(N[C@H](C)C4CC4)nc2cc1OCCCN1CCCC1)CCC3` [Example 89, N-[(1R)-1-cyclopropylethyl]-8-methoxy-7-[3-(pyrrolidin-1-yl)propoxy]-1H,2H,3H-cyclopenta[c]quinolin-4-amine formate], 0.14 µM. In the case of `COc1cc2c3c(c(-c4coc(C)c4)nc2cc1OCCCN1CCCC1)CCC3` [Example 90, 1-(3-{[8-methoxy-4-(5-methylfuran-3-yl)-1H,2H,3H-cyclopenta[c]quinolin-7-yl]oxy}propyl)pyrrolidine formate] it was 0.6 µM; in that of `CCCCNc1nc2cc(OCCCN3CCCC3)c(OC)cc2c2c1CC(C)(C)C2` [Example 91, N-butyl-8-methoxy-2,2-dimethyl-7-[3-(pyrrolidin-1-yl)propoxy]-1H,2H,3H-cyclopenta[c]quinolin-4-amine formate], 0.007 µM; in that of `COc1cc2c3c(c(NC(C)C)nc2cc1OCCCN(C)C)CCC3` [Example 92, 7-[3-(dimethylamino)propoxy]-8-methoxy-N-(propan-2-yl)-1H,2H,3H-cyclopenta[c]quinolin-4-amine formate], 0.059 µM. In the case of `CCN(CC)CCCOc1cc2nc(NC(C)C)c3c(c2cc1OC)CCC3` [Example 93, 7-[3-(diethylamino)propoxy]-8-methoxy-N-(propan-2-yl)-1H,2H,3H-cyclopenta[c]quinolin-4-amine formate] it was 0.39 µM; in that of `COc1cc2c3c(c(NC(C)(C)C)nc2cc1OCCCN1CCCC1)CCC3` [Example 94, N-tert-butyl-8-methoxy-7-[3-(pyrrolidin-1-yl)propoxy]-1H,2H,3H-cyclopenta[c]quinolin-4-amine formate], 1.4 µM. With `COc1cc2c3c(c(NCC(C)C)nc2cc1OCCCN1CCCC1)CC(C)(C)C3` [Example 95, N-isobutyl-8-methoxy-2,2-dimethyl-7-(3-(pyrrolidin-1-yl)propoxy)-2,3-dihydro-1H-cyclopenta[c]quinolin-4-amine formate], the IC50 turned out to be 0.07 µM.

Consider `COc1cc2c3c(c(NCC4CCC4)nc2cc1OCCCN1CCCC1)CC(C)(C)C3` [Example 96, N-(cyclobutylmethyl)-8-methoxy-2,2-dimethyl-7-(3-(pyrrolidin-1-yl)propoxy)-2,3-dihydro-1H-cyclopenta[c]quinolin-4-amine formate], for which the IC50 amounted to 0.1 µM. In the case of `COc1cc2c3c(c(NCC4CC4)nc2cc1OCCCN1CCCC1)CC(C)(C)C3` [Example 97, N-(cyclopropylmethyl)-8-methoxy-2,2-dimethyl-7-[3-(pyrrolidin-1-yl)propoxy]-1H,2H,3H-cyclopenta[c]quinolin-4-amine formate], the IC50 was found to be 0.084 µM. In the case of `COc1cc2c3c(c(C4CCOC4)nc2cc1OCCCN1CCCC1)CCC3` (stereo not drawn) [Example 98, 1-(3-{[8-methoxy-4-(oxolan-3-yl)-1H,2H,3H-cyclopenta[c]quinolin-7-yl]oxy}propyl)pyrrolidine formate] it was greater than 10 µM.

These data come from patent publication US10829452B2, “Histone methyltransferase inhibitors” (GLOBAL BLOOD THERAPEUTICS, INC., priority 2016, dated 2020).
